pIC50: −log10 of the molar value.
Experiments:
COR-L279 = experiment: SANGER: Inhibition of human COR-L279 cell growth in a cell viability assay.; format: functional, cell-based
CPC-N = experiment: cells; format: functional, cell-based; conditions: Homo sapiens;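 note: growth inhibition of CPC-N cells, with a cell viability assay as the readout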
Description: SANGER: Inhibition of human CPC-N cell growth in a cell viability assay.

IST-SL2 = experiment: cells; format: functional, cell-based; conditions: Homo sapiens;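 note: growth inhibition of human IST-SL2 cells, read out by a cell viability assay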
Description: SANGER: Inhibition of human IST-SL2 cell growth in a cell viability assay.

JIYOYE = experiment: cells; format: functional, cell-based; conditions: Homo sapiens
Description: SANGER: Inhibition of human JiyoyeP-2003 cell growth in a cell viability assay.

KNS-81-FD = experiment: cells; format: functional, cell-based, Homo sapiens; conditions: Homo sapiens, KNS-81-FD;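 note: growth inhibition of KNS-81-FD cells, read out with a cell viability assay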
Description: SANGER: Inhibition of human KNS-81-FD cell growth in a cell viability assay.

L-540 = experiment: cells; format: functional, cell-based; conditions: Homo sapiens;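 note: growth inhibition of the human L-540 cell line, read out with a viability assay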
Description: SANGER: Inhibition of human L-540 cell growth in a cell viability assay.

LAMA-84 = experiment: cells; format: functional, cell-based; conditions: Homo sapiens;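 note: growth inhibition of LAMA-84 cells, read out with a cell viability assay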
Description: SANGER: Inhibition of human LAMA-84 cell growth in a cell viability assay.

LAN-6 = experiment: cells; format: functional, cell-based, Homo sapiens; conditions: Homo sapiens, LAN-6;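 note: growth inhibition of LAN-6 cells, determined with a cell viability assay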
Description: SANGER: Inhibition of human LAN-6 cell growth in a cell viability assay.

LB996-RCC = experiment: cells; format: functional, cell-based; conditions: Homo sapiens
Description: SANGER: Inhibition of human LB996-RCC cell growth in a cell viability assay.

LU-165 = experiment: cells; format: functional, cell-based; conditions: Homo sapiens
Description: SANGER: Inhibition of human LU-165 cell growth in a cell viability assay.

NALM-6 = experiment: cells; format: functional, cell-based; conditions: Homo sapiens;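 note: growth inhibition of NALM-6 cells, read out with a cell viability assay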
Description: SANGER: Inhibition of human NALM-6 cell growth in a cell viability assay.

NB7 = experiment: cells; format: functional, cell-based; conditions: Homo sapiens;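 note: growth inhibition of NB7 cells, read out with a cell viability assay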
Description: SANGER: Inhibition of human NB7 cell growth in a cell viability assay.

NCCIT = experiment: SANGER: Inhibition of human NCCIT cell growth in a cell viability assay.; format: functional, cell-based
NCI-H1092 = experiment: cells; format: functional, cell-based; conditions: Homo sapiens
Description: SANGER: Inhibition of human NCI-H1092 cell growth in a cell viability assay.

NCI-H1304 = experiment: cells; format: functional, cell-based; conditions: Homo sapiens;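 note: growth inhibition of the cancer cell line, measured in a cell viability assay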
Description: SANGER: Inhibition of human NCI-H1304 cell growth in a cell viability assay.

NCI-H1417 = experiment: cells; format: functional, cell-based; conditions: Homo sapiens;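 note: human NCI-H1417 cells, growth inhibition determined with a cell viability readout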
Description: SANGER: Inhibition of human NCI-H1417 cell growth in a cell viability assay.

NCI-H1436 = experiment: cells; format: functional, cell-based; conditions: Homo sapiens;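 note: growth suppression of human NCI-H1436 cells, determined with a cell viability readout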
Description: SANGER: Inhibition of human NCI-H1436 cell growth in a cell viability assay.

NCI-H1648 = experiment: cells; format: functional, cell-based, Homo sapiens; conditions: Homo sapiens, NCI-H1648;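 note: cell viability assay measuring inhibition of NCI-H1648 cell growth, from the Sanger screening data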
Description: SANGER: Inhibition of human NCI-H1648 cell growth in a cell viability assay.

NCI-H187 = experiment: cells; format: functional, cell-based; conditions: Homo sapiens;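 note: growth inhibition of NCI-H187 cells, read out as cell viability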
Description: SANGER: Inhibition of human NCI-H187 cell growth in a cell viability assay.

NCI-H2141 = experiment: cells; format: functional, cell-based; conditions: Homo sapiens;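 note: growth inhibition of human NCI-H2141 cells, read out with a cell viability assay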
Description: SANGER: Inhibition of human NCI-H2141 cell growth in a cell viability assay.

NCI-H2171 = experiment: cells; format: functional, cell-based; conditions: Homo sapiens;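 note: growth inhibition of human NCI-H2171 cells, read out by a cell viability assay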
Description: SANGER: Inhibition of human NCI-H2171 cell growth in a cell viability assay.

NCI-H345 = experiment: cells; format: functional, cell-based; conditions: Homo sapiens;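 note: growth inhibition of NCI-H345 cells measured with a cell viability assay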
Description: SANGER: Inhibition of human NCI-H345 cell growth in a cell viability assay.

NCI-H524 = experiment: cells; format: functional, cell-based; conditions: Homo sapiens;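 note: growth inhibition of human NCI-H524 cells, read out through a cell viability assay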
Description: SANGER: Inhibition of human NCI-H524 cell growth in a cell viability assay.

NCI-H716 = experiment: cells; format: functional, cell-based; conditions: Homo sapiens;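 note: growth inhibition of human NCI-H716 cells, measured by a cell viability assay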
Description: SANGER: Inhibition of human NCI-H716 cell growth in a cell viability assay.

NCI-H748 = experiment: cells; format: functional, cell-based; conditions: Homo sapiens;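 note: growth inhibition of NCI-H748 cells, measured by a cell viability assay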
Description: SANGER: Inhibition of human NCI-H748 cell growth in a cell viability assay.

NCI-H82 = experiment: cells; format: functional, cell-based; conditions: Homo sapiens;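 note: growth inhibition of NCI-H82 cells, measured with a cell viability readout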
Description: SANGER: Inhibition of human NCI-H82 cell growth in a cell viability assay.

NCI-H889 = experiment: cells; format: functional, cell-based; conditions: Homo sapiens;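 note: cell growth inhibition of the cell line, read out with a viability assay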
Description: SANGER: Inhibition of human NCI-H889 cell growth in a cell viability assay.

SNU-16 = experiment: cells; format: functional, cell-based; conditions: Homo sapiens;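 note: growth inhibition of human SNU-16 cells, determined with a cell viability readout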
Description: SANGER: Inhibition of human NCI-SNU-16 cell growth in a cell viability assay.

NOMO-1 = experiment: cells; format: functional, cell-based; conditions: Homo sapiens;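 note: growth inhibition of human NOMO-1 cells measured by a cell viability assay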
Description: SANGER: Inhibition of human NOMO-1 cell growth in a cell viability assay.

RPMI-6666 = experiment: cells; format: functional, cell-based; conditions: Homo sapiens
Description: SANGER: Inhibition of human RPMI-6666 cell growth in a cell viability assay.

RPMI 8402 = experiment: SANGER: Inhibition of human RPMI-8402 cell growth in a cell viability assay.; format: functional, cell-based
SCLC-21H = experiment: cells; format: functional, cell-based; conditions: Homo sapiens;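 note: growth inhibition of cultured human SCLC-21H cells, read out with a cell viability assay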
Description: SANGER: Inhibition of human SCLC-21H cell growth in a cell viability assay.

SNU-C1 = experiment: cells; format: functional, cell-based; conditions: Homo sapiens;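 note: growth inhibition of SNU-C1 human cells, read out by a cell viability assay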
Description: SANGER: Inhibition of human SNU-C1 cell growth in a cell viability assay.

SR = experiment: cells; format: functional, cell-based; conditions: Homo sapiens
Description: SANGER: Inhibition of human SR cell growth in a cell viability assay.

SW872 = experiment: cells; format: functional, cell-based, Homo sapiens; conditions: Homo sapiens, SW872;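 note: growth inhibition of SW872 cells, read out by a viability assay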
Description: SANGER: Inhibition of human SW872 cell growth in a cell viability assay.

ARH-77 = experiment: cells; format: functional, cell-based; conditions: Homo sapiens;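 note: growth inhibition of ARH-77 cells, read out by a cell viability assay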
Description: SANGER: Inhibition of human ARH-77 cell growth in a cell viability assay.

BL-41 = experiment: cells; format: functional, cell-based; conditions: Homo sapiens;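 note: growth inhibition of human BL-41 cells, read out with a cell viability assay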
Description: SANGER: Inhibition of human BL-41 cell growth in a cell viability assay.

CAL-148 = experiment: cells; format: functional, cell-based; conditions: Homo sapiens
Description: SANGER: Inhibition of human CAL-148 cell growth in a cell viability assay.

TE-441-T = experiment: cells; format: functional, cell-based; conditions: Homo sapiens
Description: SANGER: Inhibition of human TE-441-T cell growth in a cell viability assay.

CMK = experiment: cells; format: functional, cell-based; conditions: Homo sapiens;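 note: growth inhibition of CMK cells, read out as cell viability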
Description: SANGER: Inhibition of human CMK cell growth in a cell viability assay.

SMILES | pIC50 (COR-L279) | pIC50 (CPC-N) | pIC50 (IST-SL2) | pIC50 (JIYOYE) | pIC50 (KNS-81-FD) | pIC50 (L-540) | pIC50 (LAMA-84) | pIC50 (LAN-6) | pIC50 (LB996-RCC) | pIC50 (LU-165) | pIC50 (NALM-6) | pIC50 (NB7) | pIC50 (NCCIT) | pIC50 (NCI-H1092) | pIC50 (NCI-H1304) | pIC50 (NCI-H1417) | pIC50 (NCI-H1436) | pIC50 (NCI-H1648) | pIC50 (NCI-H187) | pIC50 (NCI-H2141) | other results
C=C1C(=O)O[C@@H]2C3O[C@]3(C)CC/C=C(\C)CC[C@@H]12 (stereo not given in full) | < 5.30 | < 5.30 | < 5.30 | < 5.30 | < 5.30 | < 5.30 | < 5.30 | < 5.30 | < 5.30 | < 5.30 | < 5.30 | < 5.30 | < 5.30 | < 5.30 | < 5.30 | < 5.30 | < 5.30 | < 5.30 | < 5.30 | < 5.30 | pIC50 (NCI-H2171): < 5.30; pIC50 (NCI-H345): < 5.30; pIC50 (NCI-H524): < 5.30; pIC50 (NCI-H716): < 5.30; pIC50 (NCI-H748): < 5.30; pIC50 (NCI-H82): < 5.30; pIC50 (NCI-H889): < 5.30; pIC50 (SNU-16): < 5.30; pIC50 (NOMO-1): < 5.30; pIC50 (RPMI-6666): < 5.30; pIC50 (RPMI 8402): < 5.30; pIC50 (SCLC-21H): < 5.30; pIC50 (SNU-C1): < 5.30; pIC50 (SR): < 5.30; pIC50 (SW872): < 5.30; pIC50 (ARH-77): < 5.30; pIC50 (BL-41): < 5.30; pIC50 (CAL-148): < 5.30; pIC50 (TE-441-T): < 5.30; pIC50 (CMK): < 5.30
CS(=O)(=O)CCNCc1ccc(-c2ccc3ncnc(Nc4ccc(OCc5cccc(F)c5)c(Cl)c4)c3c2)o1 [LAPATINIB] | < 5.70 | < 5.70 | < 5.70 | < 5.70 | < 5.70 | < 5.70 | < 5.70 | < 5.70 | 5.87 | < 5.70 | < 5.70 | < 5.70 | < 5.70 | < 5.70 | < 5.70 | < 5.70 | < 5.70 | 7.59 | < 5.70 | < 5.70 | pIC50 (NCI-H2171): < 5.70; pIC50 (NCI-H345): < 5.70; pIC50 (NCI-H524): < 5.70; pIC50 (NCI-H716): < 5.70; pIC50 (NCI-H748): < 5.70; pIC50 (NCI-H82): < 5.70; pIC50 (NCI-H889): < 5.70; pIC50 (SNU-16): < 5.70; pIC50 (NOMO-1): < 5.70; pIC50 (RPMI-6666): < 5.70; pIC50 (RPMI 8402): < 5.70; pIC50 (SCLC-21H): < 5.70; pIC50 (SNU-C1): < 5.70; pIC50 (SR): < 5.70; pIC50 (SW872): < 5.70; pIC50 (ARH-77): < 5.70; pIC50 (BL-41): < 5.70; pIC50 (CAL-148): < 5.70; pIC50 (TE-441-T): < 5.70; pIC50 (CMK): < 5.70
CC1=C2C[C@H]3[C@@H](CC=C4C[C@@H](O)CC[C@@]43C)[C@@H]2CC[C@]12O[C@@H]1C[C@H](C)CN[C@H]1[C@H]2C [CYCLOPAMINE] | < 4.80 | < 4.80 | < 4.80 | < 4.80 | < 4.80 | < 4.80 | < 4.80 | < 4.80 | < 4.80 | < 4.80 | < 4.80 | < 4.80 | < 4.80 | < 4.80 | < 4.80 | < 4.80 | < 4.80 | < 4.80 | < 4.80 | < 4.80 | pIC50 (NCI-H2171): < 4.80; pIC50 (NCI-H345): < 4.80; pIC50 (NCI-H524): < 4.80; pIC50 (NCI-H716): < 4.80; pIC50 (NCI-H748): < 4.80; pIC50 (NCI-H82): < 4.80; pIC50 (NCI-H889): < 4.80; pIC50 (SNU-16): < 4.80; pIC50 (NOMO-1): < 4.80; pIC50 (RPMI-6666): < 4.80; pIC50 (RPMI 8402): 4.80; pIC50 (SCLC-21H): < 4.80; pIC50 (SNU-C1): < 4.80; pIC50 (SR): < 4.80; pIC50 (SW872): < 4.80; pIC50 (ARH-77): < 4.80; pIC50 (BL-41): < 4.80; pIC50 (CAL-148): < 4.80; pIC50 (TE-441-T): < 4.80; pIC50 (CMK): < 4.80
